Laboratory results published in patent US20090008238A1, “TRANSPORTABLE GAS STERILIZATION UNIT, DISPOSABLE GAS GENERATOR, LIGHT ACTIVATED ANTI-INFECTIVE COATING AND METHOD OF DISINFECTION AND STERILIZATION USING CHLORINE DIOXIDE” (THE ARIZONA BD OF REG ON BEHALF OF THE UNIV OF AZ, priority 2004, published 2009).
Several values for one entry are separate records, joined by “and”; a condition that tells them apart may be missing. Identical values can stand only once.

Columns and labels:
[1] = tested on: E. coli; conditions: 2.5 minute exposure; cited from earlier work
[2] = tested on: A. niger; conditions: 2.5 minute exposure; cited from earlier work
[3] = tested on: MRSA; conditions: 2.5 minute exposure; cited from earlier work
[4] = tested on: B. subtilis (spore); conditions: 2.5 minute exposure; cited from earlier work
[5] = tested on: S. aureus; conditions: 2.5 minute exposure; cited from earlier work
[6] = low concentrations (20 mg/L) of gas; cited from earlier work
[7] = relative to hypochlorite; cited from earlier work
[8] = concentrations up to 100 ppm, in drinking, as well as via the skin route; cited from earlier work
[9] = drank solution, up to a concentration of 24 ppm; cited from earlier work
[10] = tested on: red blood cell; conditions: cited from earlier work
[11] = tested on: Simian, Rotavirus SA11; conditions: pH 10; cited from earlier work
[12] = tested on: Bacillus subtilis var. niger spores; test: sporicidal effects of gas phase ClO2 on inoculated washers; format: cell-based; parameters: key to Sterility (Day 14): Yes indicates no turbidity was observed, sample is sterile.; No indicates turbidity observed, sample is not sterile; conditions: 4 hours; for Log Reduction: versus average of 2D and 2E
Procedure: Sterile washers were inoculated with 1.4×10^7 Bacillus subtilis var. niger spores and allowed to dry overnight. Solutions were prepared in sterile jars to obtain different chlorine dioxide levels. Five washers were suspended in each jar and exposed to one chlorine dioxide concentration for 4 hours in the dark. Two washers from each chlorine dioxide level were enumerated for log reduction and three washers from each chlorine dioxide concentration were analyzed for sterility. Log reduction samples were analyzed by placing one washer into 10 ml sterile Difco DE Neutralizing Broth, shaking for approximately 30 seconds and spread plating, in duplicate, onto Difco Trypticase Soy agar plates incubated at 35° C. for 48 hours. Sterility was determined by placing one washer in 50 ml sterile Difco Trypticase Soy Broth incubated at 35° C. for 14 days and visually checked daily for turbidity. Appropriate positive and negative controls were run with test samples.

N=C(NCCCCCCNC(=N)NC(=N)Nc1ccc(Cl)cc1)NC(=N)Nc1ccc(Cl)cc1.O=C(O)[C@H](O)[C@@H](O)[C@H](O)[C@H](O)CO.O=C(O)[C@H](O)[C@@H](O)[C@H](O)[C@H](O)CO [CHG, Chlorhexidine digluconate]
minimum bactericidal concentration, E. coli [1]: 100 ppm
minimum bactericidal concentration, A. niger [2]: >10,000 ppm
minimum bactericidal concentration, MRSA [3]: 1,000 ppm
minimum bactericidal concentration, B. subtilis (spore) [4]: 1,000 ppm
minimum bactericidal concentration, S. aureus [5]: 10 ppm

[O][Cl+][O-] [Chlorine Dioxide]
sterilant effectiveness [6]: effective sterilant
minimum bactericidal concentration, E. coli [1]: 1 ppm
minimum bactericidal concentration, A. niger [2]: 10 ppm
minimum bactericidal concentration, MRSA [3]: 1 ppm
minimum bactericidal concentration, B. subtilis (spore) [4]: 100 ppm
half-life for the elimination from the plasma [7]: less than half that of hypochlorite
fetal malformation or birth defects [8]: no evidence of fetal malformation or birth defects
adverse effects in human volunteers [9]: no adverse effects
hematological changes ([10]; rats fed up to 1000 mg/l chronically for 6 months): no significant hematological changes
red blood cell counts, hematocrit and hemoglobin ([10]; rats, after 9 months, all treatment groups): decreased
time to good antiviral activity [11]: less than 15 seconds
CFU/ml Recovered Bacillus subtilis var. niger ([12]; 50 ppm gas phase): 50,000 CFU/ml and 73,000 CFU/ml
Sterility (Day 14) ([12]; 50 ppm gas phase): No
Log Reduction ([12]; 50 ppm gas phase): 2.30 and 2.13
Sterility (Day 14) ([12]; 100 ppm gas phase): Yes
Log Reduction ([12]; 100 ppm gas phase): > 6
CFU/ml Recovered Bacillus subtilis var. niger ([12]; 200 ppm gas phase): <1 CFU/ml
Sterility (Day 14) ([12]; 200 ppm gas phase): Yes
Log Reduction ([12]; 200 ppm gas phase): >6.99
CFU/ml Recovered Bacillus subtilis var. niger ([12]; 300 ppm gas phase): <1 CFU/ml
Sterility (Day 14) ([12]; 300 ppm gas phase): Yes
Log Reduction ([12]; 300 ppm gas phase): >6.99
CFU/ml Recovered Bacillus subtilis var. niger ([12]; 400 ppm gas phase): <1 CFU/ml
Sterility (Day 14) ([12]; 400 ppm gas phase): Yes
Log Reduction ([12]; 400 ppm gas phase): >6.99
minimum bactericidal concentration, S. aureus [5]: 1 ppm

CCO [EtOH, Absolute Ethyl Alcohol]
minimum bactericidal concentration, E. coli [1]: 500,000 ppm
minimum bactericidal concentration, A. niger [2]: 500,000 ppm
minimum bactericidal concentration, MRSA [3]: 500,000 ppm
minimum bactericidal concentration, B. subtilis (spore) [4]: 500,000 ppm
minimum bactericidal concentration, S. aureus [5]: 500,000 ppm

O=CCCCC=O [GA, Glutaraldehyde]
minimum bactericidal concentration, E. coli [1]: 100,000 ppm
minimum bactericidal concentration, A. niger [2]: 100,000 ppm
minimum bactericidal concentration, MRSA [3]: 100,000 ppm
minimum bactericidal concentration, B. subtilis (spore) [4]: 100,000 ppm
minimum bactericidal concentration, S. aureus [5]: 100,000 ppm

Oc1ccccc1 [PN, Phenol]
minimum bactericidal concentration, E. coli [1]: 10,000 ppm
minimum bactericidal concentration, A. niger [2]: >10,000 ppm
minimum bactericidal concentration, MRSA [3]: >10,000 ppm
minimum bactericidal concentration, B. subtilis (spore) [4]: >10,000 ppm
minimum bactericidal concentration, S. aureus [5]: >10,000 ppm

OCl [SH, Sodium hypochlorite]
minimum bactericidal concentration, E. coli [1]: 10 ppm
minimum bactericidal concentration, A. niger [2]: 1,000 ppm
minimum bactericidal concentration, MRSA [3]: 10 ppm
minimum bactericidal concentration, B. subtilis (spore) [4]: >1,000 ppm
minimum bactericidal concentration, S. aureus [5]: 10 ppm

[O-][Cl+]O [chlorite ions]
half-life for the elimination from the plasma [7]: less than half that of hypochlorite
adverse effects in human volunteers [9]: no adverse effects

Benzalkonium chloride [BAC]
minimum bactericidal concentration, E. coli [1]: 100 ppm
minimum bactericidal concentration, A. niger [2]: 10,000 ppm
minimum bactericidal concentration, MRSA [3]: 100 ppm
minimum bactericidal concentration, B. subtilis (spore) [4]: 1,000 ppm
minimum bactericidal concentration, S. aureus [5]: 10 ppm

Providone iodine [PVP-I]
minimum bactericidal concentration, E. coli [1]: 10 ppm
minimum bactericidal concentration, A. niger [2]: 1,000 ppm
minimum bactericidal concentration, MRSA [3]: 100 ppm
minimum bactericidal concentration, B. subtilis (spore) [4]: >1,000 ppm
minimum bactericidal concentration, S. aureus [5]: 100 ppm
